Measured values: the supplement of paper PMC10307832

Legend:
Test in all cases: relative viability (nuclei count vs DMSO), 5 days (fraction); higher = more cells survive
Bemcentinib + Trametinib = compound: Nc1nc(Nc2ccc3c(c2)CC[C@@H](N2CCCC2)CC3)nn1-c1cc2c(nn1)-c1ccccc1CCC2 [Bemcentinib] + CC(=O)Nc1cccc(-n2c(=O)n(C3CC3)c(=O)c3c(Nc4ccc(I)cc4F)n(C)c(=O)c(C)c32)c1 [Trametinib] (partner 0.02 µM)
How it was run: (§1)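 Lung cancer cell lines were pin-tool dosed in 1536-well plates on the day after seeding, with either a lone drug or a fixed anchor-drug dose plus five library-drug doses (not always all listed) in √10 steps. Nuclei were counted on 4× images after 5 days. Relative viability is the ratio of treated-well to vehicle-well nuclei counts, with each value a median of duplicate plates.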

[1] = compound: Nc1nc(Nc2ccc3c(c2)CC[C@@H](N2CCCC2)CC3)nn1-c1cc2c(nn1)-c1ccccc1CCC2 [Bemcentinib] + CC(=O)c1c(C)c2cnc(Nc3ccc(N4CCNCC4)cn3)nc2n(C2CCCC2)c1=O [Palbociclib] (partner 0.5 µM)
How it was run: as §1

Bemcentinib + Crizotinib = compound: Nc1nc(Nc2ccc3c(c2)CC[C@@H](N2CCCC2)CC3)nn1-c1cc2c(nn1)-c1ccccc1CCC2 [Bemcentinib] + C[C@@H](Oc1cc(-c2cnn(C3CCNCC3)c2)cnc1N)c1c(Cl)ccc(F)c1Cl [Crizotinib] (partner 1 µM)
How it was run: as §1

[2] = compound: CC1=CC=C(C=C1)C(=O)CN2C3=C(CCCC3)SC2=N [Pifithrin_alpha] + CS(=O)(=O)CCNCc1ccc(-c2ccc3ncnc(Nc4ccc(OCc5cccc(F)c5)c(Cl)c4)c3c2)o1 [Lapatinib] (partner 2 µM)
How it was run: as §1

Row | Cell Line | relative viability (Bemcentinib + Trametinib; first compound 0.04 µM) | relative viability (Bemcentinib + Trametinib; first compound 0.1265 µM) | relative viability (Bemcentinib + Trametinib; first compound 0.4 µM) | relative viability (Bemcentinib + Trametinib; first compound 1.265 µM) | relative viability (Bemcentinib + Trametinib; first compound 4 µM) | relative viability ([1]; first compound 0.04 µM) | relative viability ([1]; first compound 0.1265 µM) | relative viability ([1]; first compound 0.4 µM) | relative viability ([1]; first compound 1.265 µM) | relative viability ([1]; first compound 4 µM) | relative viability (Bemcentinib + Crizotinib; first compound 0.04 µM) | relative viability (Bemcentinib + Crizotinib; first compound 0.1265 µM) | relative viability (Bemcentinib + Crizotinib; first compound 0.4 µM) | relative viability (Bemcentinib + Crizotinib; first compound 1.265 µM) | relative viability (Bemcentinib + Crizotinib; first compound 4 µM) | relative viability ([2]; first compound 1 µM) | relative viability ([2]; first compound 3.162 µM) | relative viability ([2]; first compound 10 µM) | relative viability ([2]; first compound 31.62 µM) | relative viability ([2]; first compound 100 µM)
1 | NCI-H2087 | 0.192 | 0.193 | 0.201 | 0.211 | 0.206 | 0.235 | 0.24 | 0.228 | 0.273 | 0.198 | 0.827 | 0.982 | 0.942 | 0.999 | 1.05 | 0.991 | 0.942 | 0.913 | 0.655 | 0.972
2 | RERF-LC-KJ | 0.953 | 0.968 | 0.863 | 0.818 | 0.96 | 0.964 | 1.07 | 1.05 | 1.24 | 1.18 | 0.919 | 0.856 | 0.78 | 0.896 | 0.841 | 0.819 | 0.865 | 0.836 | 0.747 | 0.768
3 | NCI-H1437 | 0.539 | 0.683 | 0.486 | 0.455 | 0.644 | 0.322 | 0.373 | 0.298 | 0.226 | 0.324 | 0.931 | 1.04 | 0.972 | 0.984 | 0.967 | 0.946 | 0.809 | 0.898 | 0.507 | 0.377
4 | NCI-H1651 | 0.85 | 0.831 | 0.788 | 0.951 | 0.852 | 0.528 | 0.542 | 0.528 | 0.576 | 0.512 | 0.886 | 0.882 | 0.873 | 0.905 | 0.878 | 0.633 | 0.763 | 0.865 | 0.537 | 0.741
